From US7666901B2, “Analogs of 17-hydroxywortmannin as PI3K inhibitors” (Wyeth, priority 2004, dated 2010)
Like-named read-outs stand apart in the source and are kept apart here.

What was measured:
[1] = tested on: MDA468 (human breast cancer cell); test: Cell proliferation (MTS) assay, MDA468; type: cell-based; settings: three days treatment
Outline: (§1)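 Cells plated at about 3000 per well in RPMI-1640/10% FBS were dosed with compound one day later. Viability was read by MTS conversion (absorbance 490 nm, 1–2 h) three days after treatment began. Effect is expressed as percent of vehicle-treated growth on the same plate.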

C3H mammary model = settings: cited from earlier work
[2] = tested on: DU145 (human prostate carcinoma/lymphocytic leukemia); test: Cell proliferation (MTS) assay, DU145; type: cell-based; settings: three days treatment
Outline: as §1

PI3K [3] = settings: cited from earlier work
[4] = tested on: phosphor-AKT (S473) in Rat1 cells; test: Rat1-IGF1 assay (IGF-1 induced phospho-AKT immunoblot); type: cell-based, rat
Outline: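 After 24 h serum starvation, Rat1 cells got vehicle or varying 17-HWT concentrations for 2 hours, then IGF-1 (100 ng/mL) for 30 minutes. Lysates immunoblotted for phospho-AKT (S473) and total AKT.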

PI3K [5] = tested on: T1, PI3K; test: Fluorescence polarization assay for PI3K; type: biochemical; settings: for PI3K FP IC50: Table 1
T1 construct: PI3K FP IC50
Outline: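 PI3K was preincubated with compound at 1% DMSO final, then reacted with PIP2/ATP substrate for 30-60 min. The reaction was stopped with a detector mix giving 10 nM red probe and 70 nM GST-GRP. Fluorescence polarization (mP, Tamra filters) was read 30-90 min later and IC50 determined.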

[6] = tested on: LNCaP (human prostate carcinoma); test: Cell proliferation (MTS) assay, LNCaP; type: cell-based; settings: three days treatment
Outline: as §1

Human TOR = molecular target: T2, Human TOR (Homo sapiens, UniProt P42345); test: Human TOR (mTOR) kinase assay, DELFIA format; type: biochemical
T2 construct: FLAG
Outline: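 Purified FLAG-TOR (800 ng/mL) phosphorylates His6-S6K ([…]) with […] ATP in Hepes pH 7.4 buffer containing MnCl2, 2 h at room temperature. Phospho-Thr389 S6K detected by DELFIA using Europium-labelled anti-P(T389)-p70S6K antibody; enzyme inhibition calculated from signal.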

[7] = tested on: MDA435 (human breast adenocarcinoma); test: Cell proliferation (MTS) assay, MDA435; type: cell-based; settings: three days treatment
Outline: as §1

[8] = tested on: HER2/Neu-overexpressing MDA361-DYT2 breast tumor cells; test: Tumor cell growth assay, HKI-272 and combination, MDA361-DYT2; type: cell-based, human; settings: in vitro and in vivo
Procedure: Human tumor cell are all obtained from ATCC, and are cultured using standard cell culture methods. Cells are plated in 96-well culture plates at 1000 to 3000 cells per well. One day following plating, cells are treated with various doses of PI3K inhibitor Compound 4 or Compound 5 alone or with a low constant dose of MEK inhibitor 2-(2-chloro-4-iodoanilino)-N-(cycloprorylmethoxy-3,4-difluobenzamide) (1 μg/ml) or UO126 (5 μg/ml). UO126 is also known as 1,4-diamino-2,3-dicyano-1,4-bis[2-aminophenylthio]butadiene. In some experiments, cells are treated alone with various doses of the MEK inhibitor (2-(2-chloro-4-iodoanilino)-N-(cycloprorylmethoxy-3,4-difluobenzamide)), or HER2/neu inhibitor HKI-272, or mTOR inhibitor CCI-779, or with a low constant dose of Compound 4 (0.1 μg/ml). […] Three days after drug treatment, viable cell densities are determined by metabolic conversion (by viable cells) of the dye MTS, an established cell proliferation assay. […] The MTS assay results are read in a 96-well plate reader by measuring absorbance at 490 nm. The effect of each treatment is calculated as percent of control growth relative to the vehicle DMSO-treated cells grown in the same culture plate. […]

[9] = tested on: phosphorylated Her2/Neu, ERK and AKT pathway markers in MDA361-DYT2; test: Western blot analysis of pathway markers, MDA361-DYT2; type: cell-based, human; settings: 0.1 μg/ml
Procedure: Cells are plated in 6-well culture plates. 24 hr later, cells are treated with indicated single agents or combined agents for 16 hr in full growth media. Protein lysates are prepared for Western blot analysis as previously described in Yu, K., et al., Endocr. Relat. Cancer. 2001 September :8(3) 249-58.

Row | Molecule | MDA468 IC50 ([1]; Table 1) | DU145 IC50 ([2]; Table 1) | Rat1-IGF1 IC50 ([4]; Table 1) | PI3K FP IC50 (PI3K [5]) | LNCaP IC50 ([6]; Table 1) | TOR IC50 (Human TOR; Table 1) | MDA435 IC50 ([7]; Table 1) | further results
1 | COC[C@H]1OC(=O)c2coc3c2[C@@]1(C)C1=C(C3=O)[C@@H]2CC[C@H](O)[C@@]2(C)C[C@H]1OC(C)=O [Compound 17-OH-Wort, 17β-Hydroxywortmannin, reference compound] | 2.3 µg/mL | 15 µg/mL | <0.01 µg/mL | 0.0034 µg/mL | 1 µg/mL | 0.076 µg/mL | >15 µg/mL | MDA468 IC50 ([1]; Table 2): 3 µg/mL; toxicity (C3H mammary model; dose of 1.0 mg/kg): toxicity; antitumor activity (C3H mammary model; dose of 0.5 (mg/kg)): no inhibition; DU145 IC50 ([2]; Table 2): 13 µg/mL; increase in activity relative to wortmannin (PI3K [3]; PI3K, literature): 10 fold; IC50 (PI3K [3]; literature value): 0.5 nM; Rat1-IGF1 IC50 ([4]; Table 2): <0.01 µg/mL; IC50 (PI3K [5]; Table 2): 2 nM; LNCaP IC50 ([6]; Table 2): 0.3 µg/mL; TOR IC50 (Human TOR; Table 2): 0.059 µg/mL; MDA435 IC50 ([7]; Table 2): 20 µg/mL
2 | CCOc1cc2ncc(C#N)c(Nc3ccc(OCc4ccccn4)c(Cl)c3)c2cc1NC(=O)/C=C/CN(C)C [HKI-272, (E)-N-{4-[3-chloro-4-(2-pyridinylmethoxy)anilino]-3-cyano-7-ethoxy-6-quinolinyl}-4-(dimethylamino)-2-butenamide] |  |  |  |  |  |  |  | sensitivity of MDA361-DYT2 to single agent [8]: resistant; effect on AKT pathway markers [9]: little effect; phosphorylated forms of Her2/Neu and ERK [9]: completely inhibited
3 | (1E,4S,4aR,5R,6aS,7S)-7,11-dihydroxy-4-(methoxymethyl)-4a,6a-dimethyl-1-{[methyl(1-methylpyrrolidin-3-yl)amino]methylene}-2,10-dioxo-1,2,4,4a,5,6,6a,7,8,9,9a,10-dodecahydroindeno[4,5-h]isochromen-5-yl acetate [Compound 6] | 2.01 µg/mL | 13 µg/mL | 0.02 µg/mL | 0.07 µg/mL | 0.55 µg/mL | 0.66 µg/mL | >15 µg/mL | 
